This is an account of results in PMC4162805 (European journal of medicinal chemistry, 2014).

“Also recorded” adds a separate entry of the source.

What is called IC50 is the concentration that gives 50% inhibition. High values mean weaker potency, low ones greater potency.

Sequence of δ-opioid receptor (DOR) (P41143 whole entry): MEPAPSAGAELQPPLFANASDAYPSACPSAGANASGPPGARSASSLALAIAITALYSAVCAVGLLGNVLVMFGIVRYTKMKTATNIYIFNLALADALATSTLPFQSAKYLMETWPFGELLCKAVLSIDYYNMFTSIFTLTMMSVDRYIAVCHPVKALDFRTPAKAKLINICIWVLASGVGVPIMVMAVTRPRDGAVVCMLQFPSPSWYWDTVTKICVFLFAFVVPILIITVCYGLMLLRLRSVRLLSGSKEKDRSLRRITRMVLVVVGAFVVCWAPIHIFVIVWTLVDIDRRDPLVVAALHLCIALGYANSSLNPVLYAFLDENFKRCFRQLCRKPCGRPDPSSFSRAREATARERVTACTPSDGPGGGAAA

The target in the first assay is T1, κ-opioid receptor (KOR) (Homo sapiens, UniProt P41145).
T1 sequence (P41145 whole entry): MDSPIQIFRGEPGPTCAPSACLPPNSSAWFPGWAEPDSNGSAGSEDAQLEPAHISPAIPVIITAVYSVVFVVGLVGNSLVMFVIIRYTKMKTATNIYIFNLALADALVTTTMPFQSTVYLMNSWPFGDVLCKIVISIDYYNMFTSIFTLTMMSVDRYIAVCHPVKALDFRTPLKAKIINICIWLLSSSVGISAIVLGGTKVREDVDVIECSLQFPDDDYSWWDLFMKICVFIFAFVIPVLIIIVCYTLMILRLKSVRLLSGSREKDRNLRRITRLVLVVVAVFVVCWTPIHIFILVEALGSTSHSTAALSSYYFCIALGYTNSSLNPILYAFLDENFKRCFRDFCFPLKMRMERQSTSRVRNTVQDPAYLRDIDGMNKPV
Test: not given
It is filed as binding.
Conditions: not given
With `COC(=O)[C@@H]1C[C@H](OC(=O)/C=C/c2cc(C(F)(F)F)ccc2C(F)(F)F)C(=O)[C@H]2[C@@]1(C)CC[C@H]1C(=O)O[C@H](c3ccoc3)C[C@]21C` [5l, 2-O-[2″,5″-bis(Trifluoromethyl)cinnamoyl]salvinorin B], the “Selectivity DOR/KOR” value is reported as under 0.58 and the “affinity for KOR (in words)” value was “no substantial affinity”.
Turning to `COC(=O)[C@@H]1C[C@H](OC(=O)/C=C/c2ccccc2C(F)(F)F)C(=O)[C@H]2[C@@]1(C)CC[C@H]1C(=O)O[C@H](c3ccoc3)C[C@]21C` [5j, 2-O-(2″-Trifluoromethylcinnamoyl)salvinorin B], the “Selectivity DOR/KOR” value is given as over 77 and the “Selectivity MOR/KOR” value is listed as over 77.
As to `COC(=O)[C@@H]1C[C@H](OC(=O)/C=C/c2ccccc2)C(=O)[C@H]2[C@@]1(C)CC[C@H]1C(=O)O[C@H](c3ccoc3)C[C@]21C` [5a, 2-O-Cinnamoylsalvinorin B], the “fold increased KOR affinity compared to 4a” value came out at 2 fold.
As for `COC(=O)[C@@H]1C[C@H](OC(=O)/C=C/c2ccc3c(c2)OCO3)C(=O)[C@H]2[C@@]1(C)CC[C@H]1C(=O)O[C@H](c3ccoc3)C[C@]21C` [5g, 2-O-(3″,4″-Dioxymethylenecinnamoyl)salvinorin B], the “Selectivity DOR/KOR” value is on record as over 31.
In the case of `COC(=O)[C@@H]1C[C@H](OC(=O)/C=C/c2ccc(OC)cc2)C(=O)[C@H]2[C@@]1(C)CC[C@H]1C(=O)O[C@H](c3ccoc3)C[C@]21C` [5c, 2-O-(4″-Methoxycinnamoyl)salvinorin B], the “Selectivity DOR/KOR” value is on record as over 74 and the “Selectivity MOR/KOR” value is given as over 74.
As to `COC(=O)[C@@H]1C[C@H](OC(=O)/C=C/c2ccccc2[N+](=O)[O-])C(=O)[C@H]2[C@@]1(C)CC[C@H]1C(=O)O[C@H](c3ccoc3)C[C@]21C` [5h, 2-O-(2″-Nitrocinnamoyl)salvinorin B], the “Selectivity DOR/KOR” value is over 67 and the “Selectivity MOR/KOR” value is over 67.
As for `COC(=O)[C@@H]1C[C@H](OC(=O)C=C(C)C)C(=O)[C@H]2[C@@]1(C)CC[C@H]1C(=O)O[C@H](c3ccoc3)C[C@]21C` [4c, 2-O-(3′,3′-Dimethylacryloyl)salvinorin B], the “fold reduced KOR affinity compared to 4a” value is reported as 21 fold.
Take `COC(=O)[C@@H]1C[C@H](OC(=O)/C=C/c2cc(OC)c(OC)c(OC)c2)C(=O)[C@H]2[C@@]1(C)CC[C@H]1C(=O)O[C@H](c3ccoc3)C[C@]21C` [5f, 2-O-(3″,4″,5″-Trimethoxycinnamoyl)salvinorin B]: the “affinity for KOR (in words)” value was “no appreciable affinity; also recorded: no substantial affinity”.
On to `C/C=C/C(=O)O[C@H]1C[C@@H](C(=O)OC)[C@]2(C)CC[C@H]3C(=O)O[C@H](c4ccoc4)C[C@]3(C)[C@H]2C1=O` [4e, 2-O-Crotonoylsalvinorin B], for which the “Selectivity DOR/KOR” value is listed as over 395.
Regarding `C/C=C(\C)C(=O)O[C@H]1C[C@@H](C(=O)OC)[C@]2(C)CC[C@H]3C(=O)O[C@H](c4ccoc4)C[C@]3(C)[C@H]2C1=O` [4g, 2-O-(2′,3′-Dimethylacryloyl)salvinorin B], the “Selectivity DOR/KOR” value was over 65, the “Selectivity MOR/KOR” value is on record as over 65 and the “fold reduced KOR affinity compared to 4a” value turned out to be 8 fold.
For `COC(=O)[C@@H]1C[C@H](OC(=O)/C=C/c2ccc(OC)cc2OC)C(=O)[C@H]2[C@@]1(C)CC[C@H]1C(=O)O[C@H](c3ccoc3)C[C@]21C` [5e, 2-O-(2″,4″-Dimethoxycinnamoyl)salvinorin B], the “Selectivity DOR/KOR” value is over 62 and the “Selectivity MOR/KOR” value is listed as over 62.
For the compound `COC(=O)[C@@H]1C[C@H](OC(=O)/C=C/c2ccc([N+](=O)[O-])cc2)C(=O)[C@H]2[C@@]1(C)CC[C@H]1C(=O)O[C@H](c3ccoc3)C[C@]21C` [5i, 2-O-(4″-Nitrocinnamoyl)salvinorin B], the “Selectivity DOR/KOR” value was over 35 and the “Selectivity MOR/KOR” value is reported as over 35.
`C=C(C)CC(=O)O[C@H]1C[C@@H](C(=O)OC)[C@]2(C)CC[C@H]3C(=O)O[C@H](c4ccoc4)C[C@]3(C)[C@H]2C1=O` [4d, 2-O-(3′-Methylbut-3′-enoyl)salvinorin B]: the “Selectivity DOR/KOR” value is over 1666 and the “fold increased KOR affinity compared to 4a” value is given as 3 fold.
As to `C=C(C)C(=O)O[C@H]1C[C@@H](C(=O)OC)[C@]2(C)CC[C@H]3C(=O)O[C@H](c4ccoc4)C[C@]3(C)[C@H]2C1=O` [4b, 2-O-Methacryloylsalvinorin B], the “Selectivity MOR/KOR” value is on record as over 293.
Regarding `COC(=O)[C@@H]1C[C@H](OC(=O)/C=C/c2cc(OC)ccc2OC)C(=O)[C@H]2[C@@]1(C)CC[C@H]1C(=O)O[C@H](c3ccoc3)C[C@]21C` [5d, 2-O-(2″,5″-Dimethoxycinnamoyl)salvinorin B], the “Selectivity DOR/KOR” value was over 17 and the “Selectivity MOR/KOR” value is on record as over 17.
`COC(=O)[C@@H]1C[C@H](OC(=O)/C=C/c2ccccc2OC)C(=O)[C@H]2[C@@]1(C)CC[C@H]1C(=O)O[C@H](c3ccoc3)C[C@]21C` [5b, 2-O-(2″-Methoxycinnamoyl)salvinorin B]: the “Selectivity DOR/KOR” value is listed as over 154 and the “Selectivity MOR/KOR” value was over 154.
In the case of `COC(=O)[C@@H]1C[C@H](OC(=O)/C=C/c2cccnc2)C(=O)[C@H]2[C@@]1(C)CC[C@H]1C(=O)O[C@H](c3ccoc3)C[C@]21C` [5m, 2-O-[3′-(3″-Pyridyl)acryloyl]salvinorin B], the “Selectivity DOR/KOR” value is under 0.48, the “Selectivity MOR/KOR” value is under 0.03 and the “affinity for KOR (in words)” value is on record as “no substantial affinity”.
On to `C=CC(=O)O[C@H]1C[C@@H](C(=O)OC)[C@]2(C)CC[C@H]3C(=O)O[C@H](c4ccoc4)C[C@]3(C)[C@H]2C1=O` [4a, 2-O-Acryloylsalvinorin B], for which the “Selectivity DOR/KOR” value is recorded as over 552 and the “fold reduced KOR affinity compared to 1” value is reported as 6 fold.

The target in another assay is T1, κ-opioid receptor (KOR).
Test: not given
The conditions noted are these: previously observed; cited from earlier work.
With `COC(=O)[C@@H]1C[C@H](OC(=O)CSC#N)C(=O)[C@H]2[C@@]1(C)CC[C@H]1C(=O)O[C@H](c3ccoc3)C[C@]21C` [RB-64, 22-thiocyanatosalvinorin A], the “wash-resistant irreversible binding at KOR” value is on record as “wash-resistant irreversible binding”.

The next assay has as its target δ-opioid receptor (DOR) (Homo sapiens, UniProt P41143). The assay can be described thus: Radioligand binding at DOR against [3H]DADLE.
Conditions: not given
For the compound `COC(=O)[C@@H]1C[C@H](OC(=O)/C=C/c2cc(OC)c(OC)c(OC)c2)C(=O)[C@H]2[C@@]1(C)CC[C@H]1C(=O)O[C@H](c3ccoc3)C[C@]21C` [5f, 2-O-(3″,4″,5″-Trimethoxycinnamoyl)salvinorin B], the “affinity for DOR (in words)” value is recorded as “no appreciable affinity”.

For the next assay, the target named is hKOR receptor (Homo sapiens, UniProt P41145). The assay can be described thus: cell-based.
Sequence of hKOR receptor (P41145 whole entry): as above
Conditions: not given
As for `COC(=O)[C@@H]1C[C@H](OC(=O)/C=C/c2ccccc2)C(=O)[C@H]2[C@@]1(C)CC[C@H]1C(=O)O[C@H](c3ccoc3)C[C@]21C` [5a, 2-O-Cinnamoylsalvinorin B], the IC50 was determined as 7 nM and the “fold lower cAMP inhibition level (efficacy) than 1” value worked out at 20 ×.
As to `C=CC(=O)O[C@H]1C[C@@H](C(=O)OC)[C@]2(C)CC[C@H]3C(=O)O[C@H](c4ccoc4)C[C@]3(C)[C@H]2C1=O` [4a, 2-O-Acryloylsalvinorin B], the “fold lower cAMP inhibition level (efficacy) than 1” value came out at 380 ×.
